Assay results as given in patent publication US20260207618A1, “PYRIMIDINE CARBOXAMIDE COMPOUNDS” (Acrivon Therapeutics, Inc., priority 2022, published 2026).

Tests used:
ACHN cells = experiment: Cell Titer Glo viability assay in ACHN cells; assay type: cell-based; details: Homo sapiens, 144 h, 0.17 to 10,000 nM
Procedure: (§1) ACHN renal cell carcinoma cell line (ATCC) was cultured in Minimum Essential Medium Eagle supplemented with 10% fetal calf serum (Sigma), 1% Penicillin-Streptomycin and 10 mM HEPES buffer (HyClone). Cell cultures were kept in a humidified incubator at 37° C. and 5% CO2. Cells were routinely tested for Mycoplasma contamination.
ACHN cells were seeded at a density of 400 cells per well in tissue culture treated 384 well plates (Corning Costar). After overnight incubation, cells were treated with drugs at concentrations ranging from 0.17 to 10,000 nM. Viability compared to untreated control was assessed at 144 h using Cell Titer Glo assay 2.0 (Promega).

[1] = molecular target: T1, recombinant human Wee1A kinase (Homo sapiens, UniProt P30291); experiment: LanthaScreen Europium (Eu) Kinase Binding Assay, Wee1A kinase (TR-FRET tracer displacement); details: 30 nM tracer 178, 5 nM Wee1A kinase, 60 minutes at room temperature
T1 construct: full length Wee1A kinase was expressed by baculovirus in insect cells; purchased Invitrogen PV3817; host or cells: insect cells (baculovirus)
T1 sequence (P30291 whole entry): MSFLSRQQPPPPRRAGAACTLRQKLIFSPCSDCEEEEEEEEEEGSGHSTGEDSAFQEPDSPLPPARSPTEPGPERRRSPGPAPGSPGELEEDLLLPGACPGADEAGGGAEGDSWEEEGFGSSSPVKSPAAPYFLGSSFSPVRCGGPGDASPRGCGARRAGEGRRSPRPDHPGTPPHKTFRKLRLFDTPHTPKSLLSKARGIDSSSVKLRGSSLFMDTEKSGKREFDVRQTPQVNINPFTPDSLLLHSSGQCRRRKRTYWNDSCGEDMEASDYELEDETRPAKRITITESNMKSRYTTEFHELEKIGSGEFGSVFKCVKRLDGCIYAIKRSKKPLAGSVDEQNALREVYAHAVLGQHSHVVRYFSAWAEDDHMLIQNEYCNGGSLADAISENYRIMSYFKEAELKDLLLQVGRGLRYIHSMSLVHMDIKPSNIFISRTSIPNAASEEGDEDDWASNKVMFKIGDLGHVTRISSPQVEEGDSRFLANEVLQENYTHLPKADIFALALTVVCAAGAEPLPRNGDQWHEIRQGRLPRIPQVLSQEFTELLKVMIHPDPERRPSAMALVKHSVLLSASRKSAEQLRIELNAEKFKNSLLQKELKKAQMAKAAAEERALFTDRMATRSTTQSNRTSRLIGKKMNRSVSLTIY

[2] = tested on: Cdk1 phosphorylated on tyrosine 15; experiment: High-content imaging of pCdk1 Y15 by immunofluorescence in ACHN cells; assay type: cell-based; details: Homo sapiens, high-content imaging (IF), 4 h, 7 to 5000 nM, read-out: CDK1 Tyr15 Phosphorylation EC50 (IC50)
Procedure, shortened: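 ACHN cells were treated with compounds at 7–5000 nM for 4 h, then fixed, permeabilised and immunostained for pCDK1 Y15, with DAPI as nuclear counterstain. Automated imaging gave the percentage of cells with nuclear pCDK1 Y15 positivity relative to DMSO control. EC50 values came from dose-response curves.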

[3] = tested on: Cdk1 phosphorylated on tyrosine 15; experiment: pCDK1 Y15 AlphaLISA target engagement assay in ACHN cells; assay type: cell-based; details: Homo sapiens, treated for 4 h, 7 to 5000 nM, read-out: TE Weel (ALISA): AlphaLISA CDK1 Tyr15 Phosphorylation EC50
Procedure: as §1
For target engagement assessment, quantification of Cdk1 phosphorylated on tyrosine 15 was detected using pCDK1 Y^15 AlphaLISA assay (Perkin Elmer). ACHN cells were seeded into tissue culture treated 96-well plates (VWR) to a density of 20,000 cells per well. 24 h post seeding cells were treated for 4 h with compounds at concentrations ranging from 7 to 5000 nM. Cells were washed with PBS and lysed in 50 μl alphaLISA lysis buffer before freezing at −80° C. 10 μl of the lysate was transferred to 384 well plates and incubated with alphaLISA donor and acceptor beads according to the manufacturer's instructions. Dose response curves and EC50 values were calculated and visualized using GraphPad Prism version 9.

EC50 (ACHN cells) [nM] | IC50 [1] [nM] | EC50 [2] [nM] | EC50 [3] [nM] | Structure (SMILES)
250 to 1000 | ≤ 10 | ≤ 100 | – | C#Cc1cccc(Cl)c1NC(=O)c1cnc(Nc2ccc(C3CCN(C)CC3)c(C)c2)nc1OC [Compound 129, N-(2-chloro-6-ethynylphenyl)-4-methoxy-2-((3-methyl-4-(1-methylpiperidin-4-yl)phenyl)amino)pyrimidine-5-carboxamide]
≤ 250 | ≤ 10 | ≤ 100 | – | COc1nc(Nc2ccc(C3CCN(C)CC3)c(C)c2)ncc1C(=O)Nc1c(Cl)ccc(O)c1Cl [Compound 133, N-(2,6-dichloro-3-hydroxyphenyl)-4-methoxy-2-((3-methyl-4-(1-methylpiperidin-4-yl)phenyl)amino)pyrimidine-5-carboxamide]
250 to 1000 | ≤ 10 | ≤ 100 | – | COc1nc(Nc2ccc3c(c2)CN(C)CC3(C)C)ncc1C(=O)Nc1c(Cl)cccc1Cl [Compound 135, N-(2,6-dichlorophenyl)-4-methoxy-2-((2,4,4-trimethyl-1,2,3,4-tetrahydroisoquinolin-7-yl)amino)pyrimidine-5-carboxamide]
≤ 250 | ≤ 10 | 100 to 500 | – | Cc1cc(Nc2ncc(C(=O)Nc3c(Cl)cccc3Cl)c(OC3CC3)n2)ccc1C1CCN(C)CC1 [Compound 140, 4-cyclopropoxy-N-(2,6-dichlorophenyl)-2-((3-methyl-4-(1-methylpiperidin-4-yl)phenyl)amino)pyrimidine-5-carboxamide]
≤ 250 | ≤ 10 | ≤ 100 | – | COc1nc(Nc2ccc(C3CCN(C)CC3)c(C)c2)ncc1C(=O)Nc1c(Cl)ccc(O)c1C [Compound 141, N-(6-chloro-3-hydroxy-2-methylphenyl)-4-methoxy-2-((3-methyl-4-(1-methylpiperidin-4-yl)phenyl)amino)pyrimidine-5-carboxamide]
– | ≤ 10 | 100 to 500 | > 2500 | COc1nc(Nc2ccc(O[C@H]3CCN(C)C3)c(C)c2)ncc1C(=O)Nc1c(Cl)cccc1Cl [Compound 154, (S)—N-(2,6-dichlorophenyl)-4-methoxy-2-((3-methyl-4-((1-methylpyrrolidin-3-yl)oxy)phenyl)amino)pyrimidine-5-carboxamide]
– | ≤ 10 | – | ≤ 500 | COc1nc(Nc2ccc(O[C@H]3CCN(C)C3)c(C)c2)ncc1C(=O)Nc1c(Cl)ccc(O)c1C [Compound 155, (S)—N-(6-chloro-3-hydroxy-2-methylphenyl)-4-methoxy-2-((3-methyl-4-((1-methylpyrrolidin-3-yl)oxy)phenyl)amino)pyrimidine-5-carboxamide]
– | ≤ 10 | – | 500 to 1000 | COc1nc(Nc2ccc(C3CCN(C)CC3)c(C#N)c2)ncc1C(=O)Nc1c(Cl)cccc1Cl [Compound 156, 2-((3-cyano-4-(1-methylpiperidin-4-yl)phenyl)amino)-N-(2,6-dichlorophenyl)-4-methoxypyrimidine-5-carboxamide]
250 to 1000 | ≤ 10 | 100 to 500 | – | COc1nc(Nc2ccc(OCCCN(C)C)c(C)c2)ncc1C(=O)Nc1c(Cl)ccc(O)c1C [Compound 158, N-(6-chloro-3-hydroxy-2-methylphenyl)-2-((4-(3-(dimethylamino)propoxy)-3-methylphenyl)amino)-4-methoxypyrimidine-5-carboxamide]
250 to 1000 | ≤ 10 | 100 to 500 | > 2500 | COc1nc(Nc2cnn(C3CCN(C)CC3)c2)ncc1C(=O)Nc1c(Cl)cccc1Cl [Compound 163]
– | 10 to 100 | – | > 2500 | COc1nc(Nc2ccc(C3CCN(C)CC3)c(C)c2)ncc1C(=O)Nc1cc(N)ccc1C [Compound 171]
250 to 1000 | ≤ 10 | 100 to 500 | 500 to 1000 | COc1nc(Nc2ccc(C3CCN(C)CC3)c(C)c2)ncc1C(=O)Nc1c(C)ccc2[nH]ncc12 [Compound 172]
– | 10 to 100 | – | > 2500 | COc1nc(Nc2ccc3c(cnn3C3CCN(C)C3)c2)ncc1C(=O)Nc1c(Cl)cccc1Cl (centres unmarked) [Compound 173]
– | ≤ 10 | – | > 2500 | COc1nc(Nc2ccc3c(cnn3CCN(C)C)c2)ncc1C(=O)Nc1c(Cl)cccc1Cl [Compound 174]
≤ 250 | ≤ 10 | ≤ 100 | ≤ 500 | COc1nc(Nc2ccc(C3CCNCC3)c(C)c2)ncc1C(=O)Nc1c(Cl)cccc1Cl [Compound 175]
– | 10 to 100 | – | > 2500 | COc1nc(Nc2ccc3c(cnn3C)c2)ncc1C(=O)Nc1c(Cl)cccc1Cl [Compound 176]
– | ≤ 10 | – | > 2500 | COc1nc(Nc2ccc(O[C@H]3CCNC3)c(C)c2)ncc1C(=O)Nc1c(Cl)cccc1Cl [Compound 177]
250 to 1000 | ≤ 10 | ≤ 100 | 500 to 1000 | COc1nc(Nc2ccc(O[C@@H]3CCNC3)c(C)c2)ncc1C(=O)Nc1c(Cl)cccc1Cl [Compound 178]
250 to 1000 | ≤ 10 | 100 to 500 | > 2500 | COc1nc(Nc2ccc(OC3CCNCC3)cc2)ncc1C(=O)Nc1c(Cl)cccc1Cl [Compound 179]
250 to 1000 | ≤ 10 | 100 to 500 | 500 to 1000 | COc1nc(Nc2ccc(OC3CCNCC3)c(C)c2)ncc1C(=O)Nc1c(Cl)cccc1Cl [Compound 180]
1000 to 5000 | 10 to 100 | 100 to 500 | > 2500 | COc1nc(Nc2cnn(C)c2)ncc1C(=O)Nc1c(Cl)cccc1Cl [Compound 182]
≤ 250 | ≤ 10 | 100 to 500 | – | COc1nc(Nc2ccc(N3CCCNCC3)c(C)c2)ncc1C(=O)Nc1c(Cl)cccc1Br [Compound 205]
≤ 250 | ≤ 10 | 100 to 500 | – | COc1nc(Nc2cnn(C3CCN(C)CC3)c2)ncc1C(=O)Nc1c(Br)cccc1Br [Compound 212, N-2,6-dibromophenyl-4-methoxy-2-[1-(1-methyl-4-piperidyl)-4-pyrazolylamino]-5-pyrimidinecarboxamide]
≤ 250 | ≤ 10 | 100 to 500 | – | COc1nc(Nc2ccc(N3CCC(N(C)C)CC3)c(C)c2)ncc1C(=O)Nc1c(Cl)cccc1Br [Compound 213]

Structure (SMILES) | EC50 (ACHN cells) [nM] | IC50 [1] [nM] | EC50 [2] [nM] | EC50 [3] [nM]
COc1nc(Nc2ccc(C3(C#N)CCN(C)CC3)c(C)c2)ncc1C(=O)Nc1c(Cl)cccc1Cl [Compound 181] | – | ≤ 10 | – | ≤ 500
